Experimental data: the OPERA property sets (Mansouri et al. 2018)

Conditions: not given

Compound	ready biodegradability	melting point [°C]	boiling point [°C]	log10 Henry constant (atm·m³/mol)	log10 vapour pressure (mmHg)	log10 Koc (L/kg)	log10 biodegradation half-life (days)
COc1c(N)cccc1[N+](=O)[O-]	not readily biodegradable						
O=c1c(I)cn(CC(O)CO)cc1I (stereo not given)		161					
OCCCc1ccncc1		37	289				
CCOc1ccc(NC(=O)C(C)O)cc1 (stereo not given)		118					
CC(=O)OCOC(=O)[C@@H]1N2C(=O)[C@@H](NC(=O)Cc3ccccc3)[C@H]2SC1(C)C		107					
O=C(OCc1ccccc1)c1ccccc1C(=O)OCc1ccccc1		44					
FC(F)(F)C(F)(F)C(F)(F)C(F)(F)C(F)(F)C(F)(F)C(F)(F)I			138				
CCC(C)(C)O	not readily biodegradable	-9.1	102	-4.86	1.22		
CC(=O)c1c(F)c(F)c(F)c(F)c1F		130					
O=S(=O)(Cc1ccccc1)Cc1ccccc1		152					
CCCCCCCc1ccccc1		-48	240		-1.51		
CCCCN(CCCC)N=O					-1.33		
CCN(Cc1ccccc1)c1ccccc1		35	288				
Cn1nnc2ccccc21		64.5	270				
COC(=O)C(C)N(C(=O)c1ccco1)c1c(C)cccc1C (stereo not given)		70			-6.28		
CCCCCc1ccc(C)cc1O		24					
CC(C)CN	readily biodegradable	-85	68.5		2.14		
CCCCCCCCCCCCCCCC/C=C/C1CC(=O)OC1=O (stereo not given)	not readily biodegradable						
Nc1ccc(Cl)c(C(=O)O)c1		188					
CC(C)(O)CO			176				

Compound	ready biodegradability	melting point [°C]	boiling point [°C]	log10 Henry constant (atm·m³/mol)	log10 vapour pressure (mmHg)	log10 Koc (L/kg)	log10 biodegradation half-life (days)
O=c1c(O)c(-c2ccc(O)c(O)c2)oc2cc(O)cc(O)c12		316					
CCCCCC(C)CCC (stereo not given)		-99	166				
CC(Oc1ccc(Cl)cc1Cl)C(=O)O (stereo not given)		122			-6.73	2.23	
CCOC(=O)C1(C(=O)OCC)CCC1			224				
CCCCCCCC/C=C\CCCCCCCC(=O)O	readily biodegradable		360		-5.85		
CN(C)CC#N			138				
Nc1ccc(N)c(N)c1		97.3	340				
O=CC=Cc1ccc([N+](=O)[O-])o1		118					
CCC(=O)OC(C)CC (stereo not given)			133				
CC=C(Cl)C=O			148				
CCCCC1CO1 (stereo not given)		94					
CCCCCCCCOC(=O)CC		-42.6	228				
O=C(C(F)(F)F)C(F)(F)Cl		-133	8		3.15		
CNC(=O)Oc1cccc2c1OC(C)(C)C2		151			-5.31	1.75	
CC(C)C1(C)N=C(c2ncccc2C(=O)O)NC1=O (stereo not given)		171				2	
COC(=O)Nc1nc2ccccc2[nH]1	not readily biodegradable				-9.12	2.35	
CCC(C)(C)C(C)C		-101	115		1.43		1.72
C=C/C=C\CC1=C(C)[C@@H](OC(=O)[C@@H]2[C@@H](C=C(C)C)C2(C)C)CC1=O					-4.69		
Cc1cc(Cl)ccc1O[C@H](C)C(=O)O					-5.58		
CCCC(Br)CC (stereo not given)			142				

Compound	ready biodegradability	melting point [°C]	boiling point [°C]	log10 Henry constant (atm·m³/mol)	log10 vapour pressure (mmHg)	log10 Koc (L/kg)	log10 biodegradation half-life (days)
Cc1ccc(O)c(-n2nc3ccccc3n2)c1		132					
CCN(CC)CC(=O)OCC(=O)[C@@]1(O)CC[C@H]2[C@@H]3CCC4=CC(=O)C=C[C@]4(C)[C@H]3[C@@H](O)C[C@@]21C		176					
CCOC(=O)c1ccccc1[N+](=O)[O-]		30	275				
O=Cc1ccc(Oc2ccccc2)cc1		24.5					
Cc1ccc2c(-c3ccccc3)nc(=O)n(C(C)C)c2c1		138					
Nc1c(Cl)c(Cl)cc(Cl)c1Cl		107				3.94	
Nc1ccc(F)c([N+](=O)[O-])c1		97.5					
Nc1ccc(S(=O)(=O)Nc2nccs2)cc1		189					
CC(C)COC(=O)c1ccccc1O		5.9	261				
CC(=O)S[C@H]1CC(=O)C=C2C[C@@H](SC(C)=O)[C@@H]3[C@H](CC[C@@]4(C)[C@H]3CC[C@]4(C)O)[C@]21C		206					
CNN	not readily biodegradable	-52.4	87.5		1.7		
COC(=O)C(Br)CBr (stereo not given)			206				
C=CCC1=C(C)C(OC(=O)C2C(C=C(C)C)C2(C)C)CC1=O (stereo not given)	not readily biodegradable	-40			-5.92		
NNC(=O)Nc1ccccc1		128					
O=C(OCCO)c1ccccc1O		37					
COc1ccc(C)cc1OC		24	220				
Clc1ccc(Oc2ccccc2)cc1Cl					-3.19		
CC(=O)NC(CCC(N)=O)C(=O)O (stereo not given)		197					
COc1cc(NS(=O)(=O)c2ccc(N)cc2)nc(OC)n1		204					
O=[N+]([O-])c1ccc(Oc2ccc(C(F)(F)F)cc2Cl)cc1		68					

Same assay, conditions: fish

Compound	log10 BCF	log10 biotransformation half-life (days)
c1ccc2c(c1)[nH]c1ccccc12	2.23	0.06
Clc1cccc(Cl)c1-c1c(Cl)cccc1Cl	3.85	
Nc1cccc(O)c1	1.34	
COC(=O)Nc1nc2ccccc2[nH]1	0.4	
Nc1c(Cl)c(Cl)cc(Cl)c1Cl	2.52	
